Data as given in patent US20250084061A1, “SULFONYL FUNCTIONAL COMPOUND, METHODS AND USES THEREOF” (Hubei Biopesticide Engineering Research Centre, priority 2023, published 2025).
Like-named read-outs stand apart in the source and are kept apart here.

What was measured:
[1] = system: Heliothis armigera; assay: Insecticidal activity, artificial feed surface coating method; type: in vivo; details: Helicoverpa armigera, read-out: Insecticidal activity (mortality rate grade) Heliothis armigera
Description: (§1) The insecticidal activity of sulfonyl functional compounds in the above embodiments were tested for agricultural biological functions, and the targets of insecticidal activity were Heliothis armigera, Plutella xylostella and Aphiscraccivora.
(§2) Using Heliothis armigera and Plutella xylostella as target, the insecticidal activities of sulfonyl functional compounds were tested by conventional artificial feed surface coating method. 300 microliters of artificial feed and 20 microliters of test solution were added to each well of the 24-well cell culture plate. The test solution was used in different concentrations and repeated twice (Rep1 and Rep2). The concentrations of the test solution were 500 mg/L, 250 mg/L and 125 mg/L, respectively.
(§3) The insecticidal activity of sulfonyl functional compounds against Aphiscraccivora was tested by the method of dipping. Mother liquors were prepared by the sulfonyl functional compounds provided in the above embodiments dissolved in ethanol, respectively. 500 mg/L, 250 mg/L or 125 mg/L test solution could be prepared by diluting the different mother liquors with a liquor that contained 0.1 mL/L of emulgator (Tween-80). Every test solution was tested twice (Rep1 and Rep2). A blank control was set up, and the activity results were compared with the blank control. The mortality rate of 0˜30%, 30˜50%, 50-70%, 70˜90%, or 90˜100% could be orderly set as 0, 3, 5, 7, or 9.

[2] = system: Plutella xylostella; assay: as above; type: in vivo; details: Plutella xylostella, read-out: Insecticidal activity (mortality rate grade) Plutella xylostella
Description: as §1, §2, §3

[3] = system: Aphiscraccivora; assay: Insecticidal activity, dipping method; type: in vivo
Description: as §1, §3

[4] = system: Verticillium dahliae.kieb.; assay: Bactericidal (fungicidal) activity by microdilution; type: cell-based
[5] = system: Fusarium culmorum; assay: as above; type: cell-based
[6] = system: Fusarium oxysporum f. sp. Niveum; assay: as above; type: cell-based
[7] = system: Thanatephorus cucumeris; assay: as above; type: cell-based
[8] = system: Septoria nodorum Berk.; assay: as above; type: cell-based
[9] = system: Botrytis cinerea; assay: as above; type: cell-based
[10] = system: Leptosphaeria biglobosa; assay: as above; type: cell-based
[11] = system: Alternaria kikuchiana; assay: as above; type: cell-based
[12] = system: Corynespora leaf spot of tomato; assay: as above; type: cell-based
[13] = system: Rhizoctonia solani; assay: as above; type: cell-based
[14] = system: Colletotrichum gloeobosporioids; assay: as above; type: cell-based
[15] = system: Pythium aphanidermatum; assay: as above; type: cell-based
[16] = system: Magnaporthe oryzae; type: cell-based

## COC(=O)Nc1nc2ccccc2n1C/C=C/S(=O)(=O)O [III-2]
[1]; 125 mg/L test solution
  mortality at 125 µg/mL: 0 to 30%
[1]; 250 mg/L test solution
  mortality at 250 µg/mL: 0 to 30%
[1]; 500 mg/L test solution
  mortality at 500 µg/mL: 0 to 30%
[2]; 125 mg/L test solution
  mortality at 125 µg/mL: 0 to 30%
[2]; 250 mg/L test solution
  mortality at 250 µg/mL: 0 to 30%
[2]; 500 mg/L test solution
  mortality at 500 µg/mL: 0 to 30%
[3]; 125 mg/L test solution
  Insecticidal activity (mortality rate grade) Aphiscraccivora: 0 (mortality rate of 0˜30%)
[3]; 250 mg/L test solution
  Insecticidal activity (mortality rate grade) Aphiscraccivora: 0 (mortality rate of 0˜30%)
[3]; 500 mg/L test solution
  Insecticidal activity (mortality rate grade) Aphiscraccivora: 0 (mortality rate of 0˜30%)
[4]; 12.5 mg/L
  Fungicidal activity (antibacterial rate grade) Verticillium dahliae. kieb.: 9 (The antibacterial rate of 90˜100% could be set as 9 if the target has totally no growth)
[4]; 25 mg/L
  Fungicidal activity (antibacterial rate grade) Verticillium dahliae. kieb.: 9 (The antibacterial rate of 90˜100% could be set as 9 if the target has totally no growth)
[4]; 50 mg/L
  Fungicidal activity (antibacterial rate grade) Verticillium dahliae. kieb.: 9 (The antibacterial rate of 90˜100% could be set as 9 if the target has totally no growth)
[4]; 100 mg/L
  Fungicidal activity (antibacterial rate grade) Verticillium dahliae. kieb.: 9 (The antibacterial rate of 90˜100% could be set as 9 if the target has totally no growth)
[5]; 12.5 mg/L
  Fungicidal activity (antibacterial rate grade) Fusarium culmorum: 7 (The antibacterial rate of 70˜90% could be set as 7 if the target has small amounts of growth)
[5]; 25 mg/L
  Fungicidal activity (antibacterial rate grade) Fusarium culmorum: 9 (The antibacterial rate of 90˜100% could be set as 9 if the target has totally no growth)
[5]; 50 mg/L
  Fungicidal activity (antibacterial rate grade) Fusarium culmorum: 9 (The antibacterial rate of 90˜100% could be set as 9 if the target has totally no growth)
[5]; 100 mg/L
  Fungicidal activity (antibacterial rate grade) Fusarium culmorum: 9 (The antibacterial rate of 90˜100% could be set as 9 if the target has totally no growth)
[6]; 12.5 mg/L
  Fungicidal activity (antibacterial rate grade) Fusarium oxysporum f. sp. Niveum: 9 (The antibacterial rate of 90˜100% could be set as 9 if the target has totally no growth)
[6]; 25 mg/L
  Fungicidal activity (antibacterial rate grade) Fusarium oxysporum f. sp. Niveum: 9 (The antibacterial rate of 90˜100% could be set as 9 if the target has totally no growth)
[6]; 50 mg/L
  Fungicidal activity (antibacterial rate grade) Fusarium oxysporum f. sp. Niveum: 9 (The antibacterial rate of 90˜100% could be set as 9 if the target has totally no growth)
[6]; 100 mg/L
  Fungicidal activity (antibacterial rate grade) Fusarium oxysporum f. sp. Niveum: 9 (The antibacterial rate of 90˜100% could be set as 9 if the target has totally no growth)
[7]; 12.5 mg/L
  Fungicidal activity (antibacterial rate grade) Thanatephorus cucumeris: 9 (The antibacterial rate of 90˜100% could be set as 9 if the target has totally no growth)
[7]; 25 mg/L
  Fungicidal activity (antibacterial rate grade) Thanatephorus cucumeris: 9 (The antibacterial rate of 90˜100% could be set as 9 if the target has totally no growth)
[7]; 50 mg/L
  Fungicidal activity (antibacterial rate grade) Thanatephorus cucumeris: 9 (The antibacterial rate of 90˜100% could be set as 9 if the target has totally no growth)
[7]; 100 mg/L
  Fungicidal activity (antibacterial rate grade) Thanatephorus cucumeris: 9 (The antibacterial rate of 90˜100% could be set as 9 if the target has totally no growth)
[8]; 12.5 mg/L
  Fungicidal activity (antibacterial rate grade) Septoria nodorum Berk.: 9 (The antibacterial rate of 90˜100% could be set as 9 if the target has totally no growth)
[8]; 25 mg/L
  Fungicidal activity (antibacterial rate grade) Septoria nodorum Berk.: 9 (The antibacterial rate of 90˜100% could be set as 9 if the target has totally no growth)
[8]; 50 mg/L
  Fungicidal activity (antibacterial rate grade) Septoria nodorum Berk.: 9 (The antibacterial rate of 90˜100% could be set as 9 if the target has totally no growth)
[8]; 100 mg/L
  Fungicidal activity (antibacterial rate grade) Septoria nodorum Berk.: 9 (The antibacterial rate of 90˜100% could be set as 9 if the target has totally no growth)
[9]; 12.5 mg/L
  Fungicidal activity (antibacterial rate grade) Botrytis cinerea: 3 (The antibacterial rate of 0˜30% could be set as 3 if the growth of the target is normal and consistent with that of the blank control)
[9]; 25 mg/L
  Fungicidal activity (antibacterial rate grade) Botrytis cinerea: 3 (The antibacterial rate of 0˜30% could be set as 3 if the growth of the target is normal and consistent with that of the blank control)
[9]; 50 mg/L
  Fungicidal activity (antibacterial rate grade) Botrytis cinerea: 3 (The antibacterial rate of 0˜30% could be set as 3 if the growth of the target is normal and consistent with that of the blank control)
[9]; 100 mg/L
  Fungicidal activity (antibacterial rate grade) Botrytis cinerea: 3 (The antibacterial rate of 0˜30% could be set as 3 if the growth of the target is normal and consistent with that of the blank control)
[10]; 12.5 mg/L
  Fungicidal activity (antibacterial rate grade) Leptosphaeria biglobosa: 9 (The antibacterial rate of 90˜100% could be set as 9 if the target has totally no growth)
[10]; 25 mg/L
  Fungicidal activity (antibacterial rate grade) Leptosphaeria biglobosa: 9 (The antibacterial rate of 90˜100% could be set as 9 if the target has totally no growth)
[10]; 50 mg/L
  Fungicidal activity (antibacterial rate grade) Leptosphaeria biglobosa: 9 (The antibacterial rate of 90˜100% could be set as 9 if the target has totally no growth)
[10]; 100 mg/L
  Fungicidal activity (antibacterial rate grade) Leptosphaeria biglobosa: 9 (The antibacterial rate of 90˜100% could be set as 9 if the target has totally no growth)
[11]; 12.5 mg/L
  Fungicidal activity (antibacterial rate grade) Alternaria kikuchiana: 3 (The antibacterial rate of 0˜30% could be set as 3 if the growth of the target is normal and consistent with that of the blank control)
[11]; 25 mg/L
  Fungicidal activity (antibacterial rate grade) Alternaria kikuchiana: 3 (The antibacterial rate of 0˜30% could be set as 3 if the growth of the target is normal and consistent with that of the blank control)
[11]; 50 mg/L
  Fungicidal activity (antibacterial rate grade) Alternaria kikuchiana: 3 (The antibacterial rate of 0˜30% could be set as 3 if the growth of the target is normal and consistent with that of the blank control)
[11]; 100 mg/L
  Fungicidal activity (antibacterial rate grade) Alternaria kikuchiana: 3 (The antibacterial rate of 0˜30% could be set as 3 if the growth of the target is normal and consistent with that of the blank control)
[12]; 12.5 mg/L
  Fungicidal activity (antibacterial rate grade) Corynespora leaf spot of tomato: 3 (The antibacterial rate of 0˜30% could be set as 3 if the growth of the target is normal and consistent with that of the blank control)
[12]; 25 mg/L
  Fungicidal activity (antibacterial rate grade) Corynespora leaf spot of tomato: 3 (The antibacterial rate of 0˜30% could be set as 3 if the growth of the target is normal and consistent with that of the blank control)
[12]; 50 mg/L
  Fungicidal activity (antibacterial rate grade) Corynespora leaf spot of tomato: 7 (The antibacterial rate of 70˜90% could be set as 7 if the target has small amounts of growth)
[12]; 100 mg/L
  Fungicidal activity (antibacterial rate grade) Corynespora leaf spot of tomato: 7 (The antibacterial rate of 70˜90% could be set as 7 if the target has small amounts of growth)
[13]; 12.5 mg/L
  Fungicidal activity (antibacterial rate grade) Rhizoctonia solani: 3 (The antibacterial rate of 0˜30% could be set as 3 if the growth of the target is normal and consistent with that of the blank control)
[13]; 25 mg/L
  Fungicidal activity (antibacterial rate grade) Rhizoctonia solani: 3 (The antibacterial rate of 0˜30% could be set as 3 if the growth of the target is normal and consistent with that of the blank control)
[13]; 50 mg/L
  Fungicidal activity (antibacterial rate grade) Rhizoctonia solani: 3 (The antibacterial rate of 0˜30% could be set as 3 if the growth of the target is normal and consistent with that of the blank control)
[13]; 100 mg/L
  Fungicidal activity (antibacterial rate grade) Rhizoctonia solani: 3 (The antibacterial rate of 0˜30% could be set as 3 if the growth of the target is normal and consistent with that of the blank control)
[14]; 12.5 mg/L
  Fungicidal activity (antibacterial rate grade) Colletotrichum gloeobosporioids: 9 (The antibacterial rate of 90˜100% could be set as 9 if the target has totally no growth)
[14]; 25 mg/L
  Fungicidal activity (antibacterial rate grade) Colletotrichum gloeobosporioids: 9 (The antibacterial rate of 90˜100% could be set as 9 if the target has totally no growth)
[14]; 50 mg/L
  Fungicidal activity (antibacterial rate grade) Colletotrichum gloeobosporioids: 9 (The antibacterial rate of 90˜100% could be set as 9 if the target has totally no growth)
[14]; 100 mg/L
  Fungicidal activity (antibacterial rate grade) Colletotrichum gloeobosporioids: 9 (The antibacterial rate of 90˜100% could be set as 9 if the target has totally no growth)
[15]; 12.5 mg/L
  Fungicidal activity (antibacterial rate grade) Pythium aphanidematum: 3 (The antibacterial rate of 0˜30% could be set as 3 if the growth of the target is normal and consistent with that of the blank control)
[15]; 25 mg/L
  Fungicidal activity (antibacterial rate grade) Pythium aphanidematum: 3 (The antibacterial rate of 0˜30% could be set as 3 if the growth of the target is normal and consistent with that of the blank control)
[15]; 50 mg/L
  Fungicidal activity (antibacterial rate grade) Pythium aphanidematum: 3 (The antibacterial rate of 0˜30% could be set as 3 if the growth of the target is normal and consistent with that of the blank control)
[15]; 100 mg/L
  Fungicidal activity (antibacterial rate grade) Pythium aphanidematum: 3 (The antibacterial rate of 0˜30% could be set as 3 if the growth of the target is normal and consistent with that of the blank control)
[16]; 12.5 mg/L
  Fungicidal activity (antibacterial rate grade) Magnaporthe oryzae: 9 (The antibacterial rate of 90˜100% could be set as 9 if the target has totally no growth)
[16]; 25 mg/L
  Fungicidal activity (antibacterial rate grade) Magnaporthe oryzae: 9 (The antibacterial rate of 90˜100% could be set as 9 if the target has totally no growth)
[16]; 50 mg/L
  Fungicidal activity (antibacterial rate grade) Magnaporthe oryzae: 9 (The antibacterial rate of 90˜100% could be set as 9 if the target has totally no growth)
[16]; 100 mg/L
  Fungicidal activity (antibacterial rate grade) Magnaporthe oryzae: 9 (The antibacterial rate of 90˜100% could be set as 9 if the target has totally no growth)
